These results are taken from ChEMBL document CHEMBL5550114, “Disclosure of cinnamic acid/4,9-diaminoacridine conjugates as multi-stage antiplasmodial hits” (Bioorg Med Chem, 2024).

Activity calls are given as the source filed them. The calls are words filed in the database; no cut-off is given here.

The first series relates to Plasmodium falciparum. Description: Antiplasmodial activity against CQ-sensitive blood stage Plasmodium falciparum 3D7 infected in group B human erythrocytes assessed as parasitic growth inhibition measured after 48 hrs by flow cytometry. Particulars: 3D7, Erythrocyte. It counts as functional, organism-based. In general terms: In flow cytometry, cells or beads pass a laser one at a time.
In the case of `CCN(CC)CCCC(C)Nc1c2ccc(Cl)cc2nc2c(NCCCCNC(=O)/C=C/c3ccc(OC)cc3)cc(OC)cc12` (stereo not drawn), the IC50 – broadly, the concentration needed to halve the response being measured – worked out at 153 nM.
On the same count and under the same terms, the value for `CCN(CC)CCCC(C)Nc1c2ccc(Cl)cc2nc2c(NCCCCNC(=O)/C=C/c3cccc(F)c3)cc(OC)cc12` (stereo not drawn) was 164 nM; that for `CCN(CC)CCCNc1c2ccc(Cl)cc2nc2c(NCCCCNC(=O)/C=C/c3ccccc3)cc(OC)cc12` was 80 nM; that for `CCN(CC)CCCNc1c2ccc(Cl)cc2nc2c(NCCCCNC(=O)/C=C/c3cccc(F)c3)cc(OC)cc12` was 161 nM.
For the molecule `CCN(CC)CCCC(C)Nc1c2ccc(Cl)cc2nc2c(NCCCCNC(=O)/C=C/c3ccc(F)cc3)cc(OC)cc12` (stereo not drawn), the IC50 amounted to 178 nM.
With `CCN(CC)CCCNc1c2ccc(Cl)cc2nc2c(NCCCCNC(=O)/C=C/c3ccc(F)cc3)cc(OC)cc12`, the half-maximal inhibitory concentration (IC50) came out at 348 nM.
On the same count and under the same terms, the value for `CCN(CC)CCCNc1c2ccc(Cl)cc2nc2c(NCCCCNC(=O)/C=C/c3ccc(OC)cc3)cc(OC)cc12` was 164 nM.
For the molecule `CCN(CC)CCCC(C)Nc1c2ccc(Cl)cc2nc2c(NCCCCNC(=O)/C=C/c3ccccc3)cc(OC)cc12` (stereo not drawn), the half-maximal inhibitory concentration (IC50) is 143 nM.

For a further series, the system named is Plasmodium falciparum. As to the kind of experiment: Antiplasmodial activity against gametocyte stage Plasmodium falciparum NF54-gexp02-Tom infected in group B human erythrocytes assessed as parasitic growth inhibition measured after 15 days by Geimsa staining based analysis. It counts as functional, organism-based. Particulars: Erythrocyte, 360 h.
Turning to `CCN(CC)CCCNc1c2ccc(Cl)cc2nc2c(NCCCCNC(=O)/C=C/c3cccc(F)c3)cc(OC)cc12`, the IC50 is about 430 nM.
As for `CCN(CC)CCCC(C)Nc1c2ccc(Cl)cc2nc2c(NCCCCNC(=O)/C=C/c3ccc(F)cc3)cc(OC)cc12` (stereo not drawn), the IC50 was determined as 645 nM.
Regarding `COc1cc(NC(C)CCCN)c2ncccc2c1` (stereo not drawn) [PRIMAQUINE], the IC50 turned out to be 17700 nM.
Same read-out and setting: the value for `CCN(CC)CCCNc1c2ccc(Cl)cc2nc2c(NCCCCNC(=O)/C=C/c3ccc(OC)cc3)cc(OC)cc12` was 474 nM.
Still for that read-out and setting: then `CCN(CC)CCCC(C)Nc1c2ccc(Cl)cc2nc2c(NCCCCNC(=O)/C=C/c3ccccc3)cc(OC)cc12` (stereo not drawn), with 461 nM.

The subject of the next series is Huh-7. Description: Cytotoxicity against human Huh-7 cells assessed as cell viability at 10 uM measured after 48 hrs by Alamar blue staining based analysis. Conditions: huh-7, 48 h. It counts as toxicity. For orientation: The colour change of resazurin is a common sign of viable cells or microbes.
As to `CCN(CC)CCCC(C)Nc1c2ccc(Cl)cc2nc2c(NCCCCNC(=O)/C=C/c3ccc(OC)cc3)cc(OC)cc12` (stereo not drawn), the Activity result is “Toxic”.
Consider `CCN(CC)CCCC(C)Nc1c2ccc(Cl)cc2nc2c(NCCCCN)cc(OC)cc12` (stereo not drawn), for which the Activity result is reported as “Non-Toxic”.
In the case of `CCN(CC)CCCC(C)Nc1c2ccc(Cl)cc2nc2c(NCCCCNC(=O)/C=C/c3cccc(F)c3)cc(OC)cc12` (stereo not drawn), the Activity result is on record as “Toxic”.
Turning to `CCN(CC)CCCNc1c2ccc(Cl)cc2nc2c(NCCCCNC(=O)/C=C/c3ccccc3)cc(OC)cc12`, the Activity entry is on record as “Toxic”.
As for `CCN(CC)CCCNc1c2ccc(Cl)cc2nc2c(NCCCCNC(=O)/C=C/c3cccc(F)c3)cc(OC)cc12`, the Activity entry was “Toxic”.
Still for that read-out and setting: then `CCN(CC)CCCC(C)Nc1c2ccc(Cl)cc2nc2c(NCCCCNC(=O)/C=C/c3ccc(F)cc3)cc(OC)cc12` (stereo not drawn), with “Toxic”.
The same measure, in the same setting: the value for `CCN(CC)CCCNc1c2ccc(Cl)cc2nc2c(NCCCCNC(=O)/C=C/c3ccc(F)cc3)cc(OC)cc12` was “Toxic”; that for `CCN(CC)CCCNc1c2ccc(Cl)cc2nc2c(NCCCCNC(=O)/C=C/c3ccc(OC)cc3)cc(OC)cc12` was “Toxic”; that for `CCN(CC)CCCNc1c2ccc(Cl)cc2nc2c(NCCCCN)cc(OC)cc12` was “Non-Toxic”.
Consider `CCN(CC)CCCC(C)Nc1c2ccc(Cl)cc2nc2c(NCCCCNC(=O)/C=C/c3ccccc3)cc(OC)cc12` (stereo not drawn), for which the Activity result was “Toxic”.

A further series concerns Plasmodium falciparum. Description: Antiplasmodial activity against CQ-sensitive blood stage Plasmodium falciparum 3D7 assessed as parasitic growth inhibition.
Settings: not given
It counts as functional, organism-based.
As for `CCN(CC)CCCC(C)Nc1c2ccc(Cl)cc2nc2c(NCCCCN)cc(OC)cc12` (stereo not drawn), the IC50 stood at 680 nM.
Consider `CCN(CC)CCCNc1c2ccc(Cl)cc2nc2c(NCCCCN)cc(OC)cc12`, for which the IC50 was found to be 440 nM.

Another series has as its system Plasmodium berghei. As to the kind of experiment: Antiplasmodial activity against GFP-Luccon-fused liver stage Plasmodium berghei infected in human Huh-7 cells assessed as parasitic growth inhibition measured after 48 hrs by Alamar blue staining based analysis. It counts as functional, organism-based. Particulars: Huh-7, 48 h.
As to `CCN(CC)CCCC(C)Nc1c2ccc(Cl)cc2nc2c(NCCCCN)cc(OC)cc12` (stereo not drawn), the IC50 is 11000 nM.

The next series relates to Plasmodium berghei. As to the kind of experiment: Antiplasmodial activity against GFP-Luccon-fused liver stage Plasmodium berghei infected in human Huh-7 cells assessed as parasitic growth inhibition at 1 uM measured after 48 hrs by bioluminescence assay. It counts as functional, organism-based.
Settings: not given
For the molecule `COc1ccc(/C=C/C(=O)NCCCCNc2cc(OC)cc3cc4ccc(Cl)cc4nc23)cc1`, the inhibition result was “inactive”.
Take `CCN(CC)CCCC(C)Nc1c2ccc(Cl)cc2nc2c(NCCCCNC(=O)/C=C/c3ccc(OC)cc3)cc(OC)cc12` (stereo not drawn): the inhibition result was “inactive”.
Take `CCN(CC)CCCC(C)Nc1c2ccc(Cl)cc2nc2c(NCCCCN)cc(OC)cc12` (stereo not drawn): the inhibition result is “inactive”.
For `CCN(CC)CCCC(C)Nc1c2ccc(Cl)cc2nc2c(NCCCCNC(=O)/C=C/c3cccc(F)c3)cc(OC)cc12` (stereo not drawn), the inhibition result is “inactive”.
Take `COc1cc(NCCCCNC(=O)/C=C/c2ccc(F)cc2)c2nc3cc(Cl)ccc3cc2c1`: the inhibition entry is “inactive”.
Consider `CCN(CC)CCCNc1c2ccc(Cl)cc2nc2c(NCCCCNC(=O)/C=C/c3ccccc3)cc(OC)cc12`, for which the inhibition result was “inactive”.
Take `CCN(CC)CCCC(C)Nc1ccnc2cc(Cl)ccc12` (stereo not drawn): the inhibition result was “inactive”.
In the case of `CCN(CC)CCCNc1c2ccc(Cl)cc2nc2c(NCCCCNC(=O)/C=C/c3cccc(F)c3)cc(OC)cc12`, the inhibition result was “inactive”.
On the same count and under the same terms, then `CCN(CC)CCCC(C)Nc1c2ccc(Cl)cc2nc2c(NCCCCNC(=O)/C=C/c3ccc(F)cc3)cc(OC)cc12` (stereo not drawn), with “inactive”.
For `COc1cc(NC(C)CCCN)c2ncccc2c1` (stereo not drawn) [PRIMAQUINE], the inhibition entry is “inactive”.
Consider `CCN(CC)CCCNc1c2ccc(Cl)cc2nc2c(NCCCCNC(=O)/C=C/c3ccc(F)cc3)cc(OC)cc12`, for which the inhibition result was “inactive”.
Same read-out and setting: then `CCN(CC)CCCNc1c2ccc(Cl)cc2nc2c(NCCCCNC(=O)/C=C/c3ccc(OC)cc3)cc(OC)cc12`, with “inactive”.
As to `CCN(CC)CCCNc1c2ccc(Cl)cc2nc2c(NCCCCN)cc(OC)cc12`, the inhibition result was “inactive”.
Take `COc1cc(NCCCCNC(=O)/C=C/c2ccccc2)c2nc3cc(Cl)ccc3cc2c1`: the inhibition entry is “inactive”.
Take `COc1cc(NCCCCNC(=O)/C=C/c2cccc(F)c2)c2nc3cc(Cl)ccc3cc2c1`: the inhibition result was “inactive”.
Consider `CCN(CC)CCCC(C)Nc1c2ccc(Cl)cc2nc2c(NCCCCNC(=O)/C=C/c3ccccc3)cc(OC)cc12` (stereo not drawn), for which the inhibition entry was “inactive”.

The test system of the next series is Plasmodium berghei. Description: Antiplasmodial activity against GFP-Luccon-fused liver stage Plasmodium berghei infected in human Huh-7 cells assessed as parasitic growth inhibition at 10 uM measured after 48 hrs by bioluminescence assay.
Settings: not given
It counts as functional, organism-based.
For the molecule `COc1ccc(/C=C/C(=O)NCCCCNc2cc(OC)cc3cc4ccc(Cl)cc4nc23)cc1`, the inhibition result was “Active”.
On to `CCN(CC)CCCC(C)Nc1c2ccc(Cl)cc2nc2c(NCCCCNC(=O)/C=C/c3ccc(OC)cc3)cc(OC)cc12` (stereo not drawn), for which the inhibition result was “Active”.
For `CCN(CC)CCCC(C)Nc1c2ccc(Cl)cc2nc2c(NCCCCN)cc(OC)cc12` (stereo not drawn), the inhibition result is “Active”.
As for `CCN(CC)CCCC(C)Nc1c2ccc(Cl)cc2nc2c(NCCCCNC(=O)/C=C/c3cccc(F)c3)cc(OC)cc12` (stereo not drawn), the inhibition result was “Active”.
For `COc1cc(NCCCCNC(=O)/C=C/c2ccc(F)cc2)c2nc3cc(Cl)ccc3cc2c1`, the inhibition result is “Active”.
Still for that read-out and setting: then `CCN(CC)CCCNc1c2ccc(Cl)cc2nc2c(NCCCCNC(=O)/C=C/c3ccccc3)cc(OC)cc12`, with “Active”; and `CCN(CC)CCCC(C)Nc1ccnc2cc(Cl)ccc12` (stereo not drawn), with “Active”; and `CCN(CC)CCCNc1c2ccc(Cl)cc2nc2c(NCCCCNC(=O)/C=C/c3cccc(F)c3)cc(OC)cc12`, with “Active”.
`CCN(CC)CCCC(C)Nc1c2ccc(Cl)cc2nc2c(NCCCCNC(=O)/C=C/c3ccc(F)cc3)cc(OC)cc12` (stereo not drawn): the inhibition result was “Active”.
Same read-out and setting: the value for `COc1cc(NC(C)CCCN)c2ncccc2c1` (stereo not drawn) [PRIMAQUINE] was “Active”; that for `CCN(CC)CCCNc1c2ccc(Cl)cc2nc2c(NCCCCNC(=O)/C=C/c3ccc(F)cc3)cc(OC)cc12` was “Active”; that for `CCN(CC)CCCNc1c2ccc(Cl)cc2nc2c(NCCCCNC(=O)/C=C/c3ccc(OC)cc3)cc(OC)cc12` was “Active”.
On to `CCN(CC)CCCNc1c2ccc(Cl)cc2nc2c(NCCCCN)cc(OC)cc12`, for which the inhibition result is “Active”.
Still for that read-out and setting: the value for `COc1cc(NCCCCNC(=O)/C=C/c2ccccc2)c2nc3cc(Cl)ccc3cc2c1` was “Active”; that for `COc1cc(NCCCCNC(=O)/C=C/c2cccc(F)c2)c2nc3cc(Cl)ccc3cc2c1` was “Active”; that for `CCN(CC)CCCC(C)Nc1c2ccc(Cl)cc2nc2c(NCCCCNC(=O)/C=C/c3ccccc3)cc(OC)cc12` (stereo not drawn) was “Active”.
